Laboratory results from article PMC11853379, “Glioblastoma Cell Migration, Invasion and Vasculogenic Mimicry Downmodulated by Novel uPAcyclin Derivatives” (Cells, 2025).
Where two headings read alike, the source gives them in different places. Positions of bridges follow the written chain, without caps; N, C: chain ends. Residues, ends and D or L forms follow the SMILES beside them.

How the values were obtained:
[1] = target: T1, αV integrin on U251-MG cells (Homo sapiens, UniProt P06756); assay: Receptor binding assay: displacement of FITC-uPAcyclin from U251-MG cells; conditions: competition with FITC-uPAcyclin
T1 construct: endogenous in cells; host or cells: U251-MG human glioblastoma cells (acid-treated, 4 °C)
Procedure: The U87-MG and U251-MG cell lines were harvested and acid-treated, as described. Briefly, 2 × 10^6 cells/sample were pre-incubated for 30 min at 4 °C with uPAcyclin and Ala peptides and subsequently exposed to 50 nM FITC-uPAcyclin for 2 h at 4 °C, as described. The experiments were performed three times, with duplicate samples, and analyzed as reported in the statistical analysis.
To rule out the possibility that the effects observed may be restricted to a single cell line, testing was extended to the U251-MG cell line, derived from a human glioblastoma with a mesenchymal-like phenotype with a lower proliferative capacity than U87-MG cells. This cell line was analyzed for the ability to specifically bind the FITC-uPAcyclin, in the presence of increasing concentrations of unlabeled [Ala^2,Ala^5]uPAcyclin, together with the parent uPAcyclin and the selected cyclopeptides [Ala^1]uPAcyclin, [Ala^4]uPAcyclin and [Ala^8]uPAcyclin (Figure 4A). In particular, [Ala^1]uPAcyclin and [Ala^8]uPAcyclin were selected for their contrasting affinity/activity observed on U87-MG glioblastoma cells, while [Ala^4]uPAcyclin was chosen to confirm the importance of Ser4 both in binding and in the anti-migratory activity of uPAcyclin.
Figure 4 Binding and biological effect of selected Ala peptides on U251-MG migration and invasion. […]

U251-MG cells = type: cell-based, human
Procedure: The migration and invasion assays were performed with Boyden chambers, according to De Vincenzo et al., using 11 × 10^4 U87-MG and U251-MG glioblastoma cells/sample pre-treated for 40 min at 37 °C with the indicated effectors and then allowed to migrate for 3 h or to invade for 5 h at 37 °C toward 5% FBS in DMEM/0.1% BSA. The migrated or invaded cells were reported as a percentage of basal random migration or invasion and analyzed as reported in the Statistical Analyses section. The migration and invasion experiments were conducted in triplicate.
Figure 4 Binding and biological effect of selected Ala peptides on U251-MG migration and invasion. (A) A binding assay was performed using U251-MG cells, as described in the legend of Figure 1. (B) The directional migration toward 10% FBS of U251-MG cells was performed in Boyden chambers, in the presence of the indicated peptides, as described in the legend of Figure 1. (C) An invasion assay was performed toward 5% FBS of U251-MG cells in Boyden chambers, in the presence of the indicated peptides. For all migration and invasion assays, the p-values are ≤0.001, apart from [Ala^1]uPAcyclin with a p ≤ 0.05.

T1 sequence (P06756 31-889 limits assumed): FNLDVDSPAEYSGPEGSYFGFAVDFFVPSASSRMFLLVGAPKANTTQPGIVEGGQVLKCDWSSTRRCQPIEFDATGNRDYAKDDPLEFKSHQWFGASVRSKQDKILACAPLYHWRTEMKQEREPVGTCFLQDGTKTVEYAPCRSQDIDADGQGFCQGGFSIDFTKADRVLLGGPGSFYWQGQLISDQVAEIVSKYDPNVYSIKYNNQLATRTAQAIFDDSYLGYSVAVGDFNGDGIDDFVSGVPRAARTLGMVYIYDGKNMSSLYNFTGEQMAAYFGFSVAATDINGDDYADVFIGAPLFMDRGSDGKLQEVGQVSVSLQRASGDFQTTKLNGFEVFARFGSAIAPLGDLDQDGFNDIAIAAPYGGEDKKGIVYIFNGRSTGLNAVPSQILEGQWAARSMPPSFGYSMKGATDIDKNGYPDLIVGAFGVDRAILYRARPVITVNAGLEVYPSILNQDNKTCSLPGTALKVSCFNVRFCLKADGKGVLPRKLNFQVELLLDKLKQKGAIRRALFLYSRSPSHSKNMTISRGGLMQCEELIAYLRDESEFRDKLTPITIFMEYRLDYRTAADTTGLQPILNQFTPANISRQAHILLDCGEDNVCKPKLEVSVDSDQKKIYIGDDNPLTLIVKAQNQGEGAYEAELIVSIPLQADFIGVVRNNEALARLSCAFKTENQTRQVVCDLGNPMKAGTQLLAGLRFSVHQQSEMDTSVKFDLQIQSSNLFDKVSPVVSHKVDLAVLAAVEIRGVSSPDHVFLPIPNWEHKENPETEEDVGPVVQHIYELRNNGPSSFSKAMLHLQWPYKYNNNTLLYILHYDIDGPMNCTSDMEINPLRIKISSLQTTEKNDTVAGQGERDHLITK
T1 sequence (P06756 891-1048 limits assumed): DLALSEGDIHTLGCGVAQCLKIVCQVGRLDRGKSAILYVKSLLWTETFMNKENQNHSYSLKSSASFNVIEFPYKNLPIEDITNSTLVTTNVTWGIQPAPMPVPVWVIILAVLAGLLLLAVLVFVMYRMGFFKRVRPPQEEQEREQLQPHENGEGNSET

IC50 (U251-MG cells; 3 h) [pM] | IC50 (U251-MG cells; 5 h) [pM] | Structure (SMILES) | binding to U251-MG cells (in words) [1] | inhibition of invasion (in words) (U251-MG cells; U251-MG) | inhibition of migration (in words) (U251-MG cells; U251-MG)
< 1 | < 1 | CC(=O)N[C@@H](CCCCN)C(=O)N[C@@H](C)C(=O)N[C@H]1CCC(=O)NCCCC[C@@H](C(N)=O)NC(=O)[C@H](CC(C)C)NC(=O)[C@H](CCC(=O)O)NC(=O)[C@H](CCC(=O)O)NC(=O)[C@@H]2CCCN2C(=O)[C@H](C)NC(=O)[C@H](CO)NC1=O [[Ala^2,Ala^5]uPAcyclin] (Ac-KAESAPEELK-NH2; lactam 3-10) | binds with the highest affinity | – | –
– | – | CC(=O)N[C@@H](CCCCN)C(=O)N1CCC[C@H]1C(=O)N[C@H]1CCC(=O)NCCCC[C@@H](C(N)=O)NC(=O)[C@H](CC(C)C)NC(=O)[C@H](C)NC(=O)[C@H](CCC(=O)O)NC(=O)[C@@H]2CCCN2C(=O)[C@@H]2CCCN2C(=O)[C@H](CO)NC1=O [[Ala^8]uPAcyclin] (Ac-KPESPPEALK-NH2; lactam 3-10) | – | most active among the Ala variants | most active among the Ala variants
– | – | CC(=O)N[C@@H](CCCCN)C(=O)N1CCC[C@H]1C(=O)N[C@H]1CCC(=O)NCCCC[C@@H](C(N)=O)NC(=O)[C@H](CC(C)C)NC(=O)[C@H](CCC(=O)O)NC(=O)[C@H](CCC(=O)O)NC(=O)[C@@H]2CCCN2C(=O)[C@@H]2CCCN2C(=O)[C@H](CO)NC1=O [uPAcyclin] (Ac-KPESPPEELK-NH2; lactam 3-10) | dose-dependent decrease in cell-associated fluorescence | – | –
